# Experimental data as given in article PMC4807618 (Angewandte Chemie (International ed. in English), 2016).
# What was measured:
# [1] = tested on: NA activity of oseltamivir-susceptible (wild-type) H1N1 influenza virus A/Brisbane/59/2007; type: biochemical
# [2] = tested on: NA activity of oseltamivir-susceptible (wild-type) H1N1 influenza virus A/Netherlands/049/2008; type: biochemical
Structure (SMILES),effect on NA activity [1],effect on NA activity [2]
"CCN[C@H]1C[C@H](C)S(=O)(=O)c2sc(S(N)(=O)=O)cc21 [Dorzolamide, dorzolamide]",no effect,no effect
"CCn1cc(C(=O)O)c(=O)c2ccc(C)nc21 [Nalidixic acid, nalidixic acid]",no effect,no effect
